Measurements reported in patent US20170216355A1, “Methods and Compositions for Enhancing T Cell Function and Survival” (Augusta University Research Institute, Inc., priority 2016, published 2017).
“Also recorded” adds a separate entry of the source.

Legend:
[1] = system: CD8 T cells from pMel-1 mice; assay: Phenotyping of gp100-activated CD8 T cells (CD62L/CD44 flow cytometry); assay type: cell-based, mouse; settings: for phenotype of CD8 T cells (TCM vs TEM) compared to non-treated cells: after 3 days of stimulation with 1 μM gp100 25-33 (7 days culture); for CD62L expression level: day 3, and day 7 after each stimulation with gp100
Procedure: CD8 T cells from pMel-1 mice were activated in vitro as previously described^5. Briefly, homogenized pMel-1 splenocytes were stimulated with gp10025-33 peptide at a 1 μM concentration (day 0). Cells were cultured in RPMI 1640 (Lonza) supplemented with 10% FBS, penicillin (100 U/mL), streptomycin ([…]), 0.1% β-mercaptoethanol (Life Technologies, Invitrogen) and IL-2 (100 U/ml) (Peprotech) at 37° C. with 5% CO2. pMel-1 cells were cultured with or without the different PI3K inhibitors. The concentration of the inhibitors was maintained throughout the culture by changing the media every 48-72 hours.
On Days 7, 14 and 21, cells were re-stimulated with gp10025-33 peptide at a 1 μM concentration using feeder cells (irradiated WT splenocytes, 4000 Rads) at 1:1 ratio using the same culture conditions.
Cells were labeled with 5 μM Violet Cell Trace (VCT) proliferation dye (Life Technologies, Invitrogen) prior to their stimulation (day 0) following the manufacturers' instructions. The proliferation of CD8 T cells was assessed via VCT dye dilution (day 3) using an LSRII SORP with HTS Flow Cytometer (BD Biosciences). The data were analyzed using FlowJo 10 (Tree Star). The cultured cells were harvested on days 3, 7, 14 and 21 to assess their phenotype. Cells were stained with the following surface marker antibodies (BD Biosciences): APC-Cy7 labeled anti-CD8, FITC labeled anti-Vβ13, PE labeled anti-CD62L, APC labeled anti-CD44, PE-CF594 labeled anti-CD127, APC labeled anti-KLRG-1 in addition to the viability stain 7AAD. All the analyses were performed on viable (7AAD−), Vβ13+CD8+ T cells.

[2] = system: CD8 T cells from pMel-1 mice; assay: Proliferation assay (VCT dye dilution) and fold expansion of CD8 T cells; assay type: cell-based, mouse
Procedure: CD8 T cells from pMel-1 mice were activated in vitro as previously described^5. […] The concentration of the inhibitors was maintained throughout the culture by changing the media every 48-72 hours. […] The data were analyzed using FlowJo 10 (Tree Star). […] Cells were stained with the following surface marker antibodies (BD Biosciences): APC-Cy7 labeled anti-CD8, FITC labeled anti-Vβ13, PE labeled anti-CD62L, APC labeled anti-CD44, PE-CF594 labeled anti-CD127, APC labeled anti-KLRG-1 in addition to the viability stain 7AAD. All the analyses were performed on viable (7AAD−), Vβ13+CD8+ T cells.

[3] = system: CD8 T cells from pMel-1 mice; assay: Cytometric Bead Array of IL-2, TNF and IFN-γ secretion; assay type: cell-based, mouse
p110δ = p110δ (Homo sapiens, UniProt O00329); settings: cited from earlier work
Sequence of p110δ (O00329 whole entry, species assumed): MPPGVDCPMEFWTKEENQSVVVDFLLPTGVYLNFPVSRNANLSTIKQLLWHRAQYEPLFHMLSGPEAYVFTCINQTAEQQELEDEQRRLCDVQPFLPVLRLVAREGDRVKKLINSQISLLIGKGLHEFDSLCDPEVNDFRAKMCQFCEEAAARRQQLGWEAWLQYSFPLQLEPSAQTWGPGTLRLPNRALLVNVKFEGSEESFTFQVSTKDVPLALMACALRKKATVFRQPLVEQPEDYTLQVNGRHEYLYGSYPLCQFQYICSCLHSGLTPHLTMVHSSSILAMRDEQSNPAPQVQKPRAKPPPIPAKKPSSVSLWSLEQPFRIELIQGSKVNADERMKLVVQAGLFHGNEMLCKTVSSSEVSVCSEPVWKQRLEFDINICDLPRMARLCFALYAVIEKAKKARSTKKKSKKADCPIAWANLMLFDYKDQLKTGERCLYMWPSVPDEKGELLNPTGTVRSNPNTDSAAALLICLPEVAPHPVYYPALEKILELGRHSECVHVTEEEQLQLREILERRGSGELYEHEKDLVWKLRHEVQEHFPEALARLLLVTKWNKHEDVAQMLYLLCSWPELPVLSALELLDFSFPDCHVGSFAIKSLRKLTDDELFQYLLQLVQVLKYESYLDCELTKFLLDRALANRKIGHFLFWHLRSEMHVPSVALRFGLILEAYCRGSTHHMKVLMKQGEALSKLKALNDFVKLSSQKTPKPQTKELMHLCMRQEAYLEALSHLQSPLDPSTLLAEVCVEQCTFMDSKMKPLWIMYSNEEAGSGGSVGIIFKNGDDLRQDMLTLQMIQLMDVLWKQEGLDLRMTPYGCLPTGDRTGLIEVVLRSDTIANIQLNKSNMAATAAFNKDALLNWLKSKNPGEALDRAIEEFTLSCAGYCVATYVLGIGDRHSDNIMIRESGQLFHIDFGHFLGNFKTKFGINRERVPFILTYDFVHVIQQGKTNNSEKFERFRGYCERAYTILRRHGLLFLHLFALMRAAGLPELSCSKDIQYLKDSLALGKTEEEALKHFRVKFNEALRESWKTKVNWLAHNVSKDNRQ
Sequence of p110δ (P27986 whole entry partner, species assumed): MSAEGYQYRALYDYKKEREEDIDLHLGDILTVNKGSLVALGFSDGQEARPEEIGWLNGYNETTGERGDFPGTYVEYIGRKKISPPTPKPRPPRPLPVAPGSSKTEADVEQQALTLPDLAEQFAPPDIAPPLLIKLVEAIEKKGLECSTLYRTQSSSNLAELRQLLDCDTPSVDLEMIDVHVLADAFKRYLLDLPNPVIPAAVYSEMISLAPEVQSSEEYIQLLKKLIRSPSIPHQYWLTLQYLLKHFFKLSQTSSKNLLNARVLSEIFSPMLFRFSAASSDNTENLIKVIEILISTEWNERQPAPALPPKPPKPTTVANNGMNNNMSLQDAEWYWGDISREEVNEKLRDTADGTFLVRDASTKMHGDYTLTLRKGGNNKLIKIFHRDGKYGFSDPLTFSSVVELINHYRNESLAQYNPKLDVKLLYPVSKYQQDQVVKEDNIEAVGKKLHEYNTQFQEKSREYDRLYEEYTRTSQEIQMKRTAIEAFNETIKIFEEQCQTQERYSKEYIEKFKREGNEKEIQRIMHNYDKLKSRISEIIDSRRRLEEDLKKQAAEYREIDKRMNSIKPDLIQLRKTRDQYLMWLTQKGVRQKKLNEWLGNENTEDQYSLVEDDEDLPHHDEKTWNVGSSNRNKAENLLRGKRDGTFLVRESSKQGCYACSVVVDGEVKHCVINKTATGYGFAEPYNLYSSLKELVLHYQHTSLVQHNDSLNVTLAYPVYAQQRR

p110α = p110α (Homo sapiens, UniProt P42336); settings: cited from earlier work
Sequence of p110α (P42336 whole entry, species assumed): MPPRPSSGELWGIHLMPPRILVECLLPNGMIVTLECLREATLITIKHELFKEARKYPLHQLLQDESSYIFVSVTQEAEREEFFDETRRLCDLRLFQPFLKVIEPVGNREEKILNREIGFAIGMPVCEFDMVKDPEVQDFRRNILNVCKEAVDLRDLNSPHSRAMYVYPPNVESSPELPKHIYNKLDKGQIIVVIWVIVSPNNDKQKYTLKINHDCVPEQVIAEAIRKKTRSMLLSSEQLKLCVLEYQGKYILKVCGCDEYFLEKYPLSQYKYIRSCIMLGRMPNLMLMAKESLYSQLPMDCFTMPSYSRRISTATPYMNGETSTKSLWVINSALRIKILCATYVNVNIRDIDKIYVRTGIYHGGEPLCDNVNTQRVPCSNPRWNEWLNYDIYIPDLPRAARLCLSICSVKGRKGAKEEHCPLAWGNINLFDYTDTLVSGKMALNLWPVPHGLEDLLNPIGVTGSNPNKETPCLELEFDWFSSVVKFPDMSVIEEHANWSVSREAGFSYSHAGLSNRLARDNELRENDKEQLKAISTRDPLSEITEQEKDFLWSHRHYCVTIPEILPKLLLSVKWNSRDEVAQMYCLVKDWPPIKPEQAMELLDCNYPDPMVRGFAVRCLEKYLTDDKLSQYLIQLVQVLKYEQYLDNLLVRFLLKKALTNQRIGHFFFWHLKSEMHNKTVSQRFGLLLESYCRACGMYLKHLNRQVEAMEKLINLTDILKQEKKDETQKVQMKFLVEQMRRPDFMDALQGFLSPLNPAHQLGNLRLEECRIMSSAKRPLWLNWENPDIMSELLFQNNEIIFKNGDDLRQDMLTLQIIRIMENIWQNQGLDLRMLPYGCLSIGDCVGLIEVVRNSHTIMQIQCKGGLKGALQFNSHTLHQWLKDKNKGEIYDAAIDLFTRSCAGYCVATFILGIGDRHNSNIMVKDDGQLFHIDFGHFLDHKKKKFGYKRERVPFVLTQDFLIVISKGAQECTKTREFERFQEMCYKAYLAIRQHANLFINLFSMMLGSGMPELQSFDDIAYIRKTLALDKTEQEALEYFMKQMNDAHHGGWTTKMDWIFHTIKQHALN

p110γ = p110γ (Homo sapiens, UniProt P48736); settings: cited from earlier work
Sequence of p110γ (P48736 whole entry, species assumed): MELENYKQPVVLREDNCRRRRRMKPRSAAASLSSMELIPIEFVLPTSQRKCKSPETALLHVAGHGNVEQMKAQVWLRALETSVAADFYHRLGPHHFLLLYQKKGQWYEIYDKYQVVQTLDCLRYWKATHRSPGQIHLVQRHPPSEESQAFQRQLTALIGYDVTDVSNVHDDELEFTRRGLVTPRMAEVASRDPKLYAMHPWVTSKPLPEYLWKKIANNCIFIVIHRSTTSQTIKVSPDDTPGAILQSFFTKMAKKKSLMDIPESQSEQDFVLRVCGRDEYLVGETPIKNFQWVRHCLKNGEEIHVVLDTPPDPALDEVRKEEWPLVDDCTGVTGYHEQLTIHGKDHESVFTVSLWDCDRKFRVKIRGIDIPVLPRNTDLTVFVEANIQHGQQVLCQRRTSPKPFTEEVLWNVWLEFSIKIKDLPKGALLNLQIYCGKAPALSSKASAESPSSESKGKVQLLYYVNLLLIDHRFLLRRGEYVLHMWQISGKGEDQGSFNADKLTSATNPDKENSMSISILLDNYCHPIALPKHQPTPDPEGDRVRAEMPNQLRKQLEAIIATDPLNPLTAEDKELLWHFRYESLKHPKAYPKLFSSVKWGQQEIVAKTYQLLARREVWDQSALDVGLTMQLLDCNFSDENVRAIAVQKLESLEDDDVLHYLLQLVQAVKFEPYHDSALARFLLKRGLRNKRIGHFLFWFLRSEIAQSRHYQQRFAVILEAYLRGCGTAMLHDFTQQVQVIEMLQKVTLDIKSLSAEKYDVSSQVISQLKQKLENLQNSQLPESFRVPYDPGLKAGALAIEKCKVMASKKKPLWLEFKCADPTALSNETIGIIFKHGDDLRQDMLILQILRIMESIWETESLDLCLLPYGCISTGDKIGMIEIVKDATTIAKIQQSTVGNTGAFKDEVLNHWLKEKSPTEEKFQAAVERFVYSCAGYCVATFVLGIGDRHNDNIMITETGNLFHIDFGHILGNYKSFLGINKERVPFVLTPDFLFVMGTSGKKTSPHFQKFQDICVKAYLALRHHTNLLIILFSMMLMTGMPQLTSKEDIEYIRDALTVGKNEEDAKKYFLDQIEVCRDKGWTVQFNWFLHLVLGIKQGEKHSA

SMILES: Cc1nc(NC(=O)N2CCC[C@H]2C(N)=O)sc1-c1csc(C(C)(C)C)n1 [A66]
- phenotype of CD8 T cells (TCM vs TEM) compared to non-treated cells [1]: no differences in the phenotype

SMILES: CC[C@H](Nc1ncnc2[nH]cnc12)c1nc2cccc(F)c2c(=O)n1-c1ccccc1 [CAL-101]
- percentage of TCM ([1]; D3, stim1, representative example, non-treated 4%): 32%
- percentage of terminally differentiated T-cells ([1]; D7, Stim 3, representative example, non-treated 36%): 5%
- percentage of TEM cells (CD62LloCD44hi) ([1]; D7, Stim3, representative example, non-treated 64%): 95%

SMILES: CS(=O)(=O)N1CCN(Cc2cc3nc(-c4cccc5[nH]ncc45)nc(N4CCOCC4)c3s2)CC1 [GDC-0941]
- toxicity to CD8 T cells ([2]; highest dose tested (279 nM)): toxic
- expansion of CD8 T cells ([2]; with further stimulations (days 7 and 14), vs non-treated cells): expand at a significantly high rate
- percentage of TCM phenotype (CD62LhiCD44hi) ([1]; GDC at the highest concentration, non-treated cells 96% TEM): 37%
- percentage of TEM ([1]; GDC treatment, after the third stimulation, non-treated 64%): 93%
- percentage of TCM ([1]; GDC treatment, after the third stimulation, non-treated less than 0.01): 3.5%
- phenotype of CD8 T cells (TCM vs TEM) compared to non-treated cells ([1]; listed as GDC): high percentage of the TCM phenotype; also recorded: high percentage of TCM cells
- phenotype of CD8 T cells (TEM, terminally differentiated) compared to non-treated or other inhibitors ([1]; after the second and third stimulations): higher percentage of TEM
- percentage of terminally differentiated T-cells (CD62LloCD44lo) ([1]; after the third stimulation, highest GDC concentration, non-treated 36%): 4%
- CD62L expression level [1]: maintains a high level of CD62L expression
- CD62L expression level ([1]; listed as GDC): maintained high expression levels of CD62L
- ability of CD8 T cells to produce IFNγ and TNF ([3]; GDC-0941, A66 (288 nM), TGX-221 (45 nM), CAL-101 (202.5 nM), re-stimulated days 7 and 14, supernatant after 24 hours): not affected
- IL-2 secretion ([3]; after re-stimulation (stimulation 3), normalized to GP100, GDC 99 nM, CAL-101 202.5 nM, listed as GDC): significantly higher levels of IL-2; also recorded: maintained a significantly high level of IL-2 secretion

SMILES: Cc1cc(C(C)Nc2ccccc2)c2nc(N3CCOCC3)cc(=O)n2c1 (centres unmarked) [TGX-221]
- IC50 (p110δ): 0.1 µM
- phenotype of CD8 T cells (TCM vs TEM) compared to non-treated cells [1]: no differences in the phenotype
- IC50 (p110α): 5 µM
- IC50 (p110γ): > 10 µM
